Data from PubChem BioAssay (NCI).
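Protocol summary: plate cells (96-well), add compound at 5 concentrations, incubate 48 h, interpolate endpoints linearly. GI50 is the concentration that inhibits growth by half. TGI marks complete inhibition of growth.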

How the values were obtained:
Assay in all cases: NCI tumour cell line growth inhibition, 48 h
HCT-116 colon = system: HCT-116 colon
OVCAR-8 ovarian = system: OVCAR-8 ovarian
A549 NSCLC = system: A549 NSCLC
RPMI-8226 leukemia = system: RPMI-8226 leukemia
HCT-15 colon = system: HCT-15 colon
KM12 colon = system: KM12 colon
UO-31 renal = system: UO-31 renal
LOX IMVI melanoma = system: LOX IMVI melanoma

SMILES	GI50 (HCT-116 colon) [µM]	TGI (HCT-116 colon) [µM]	GI50 (OVCAR-8 ovarian) [µM]	TGI (OVCAR-8 ovarian) [µM]	GI50 (A549 NSCLC) [µM]	TGI (A549 NSCLC) [µM]	GI50 (RPMI-8226 leukemia) [µM]	TGI (RPMI-8226 leukemia) [µM]	GI50 (HCT-15 colon) [µM]	TGI (HCT-15 colon) [µM]	GI50 (KM12 colon) [µM]	TGI (KM12 colon) [µM]	GI50 (UO-31 renal) [µM]	TGI (UO-31 renal) [µM]	GI50 (LOX IMVI melanoma) [µM]	TGI (LOX IMVI melanoma) [µM]
COc1ccc(/C=C/C(=O)/C=C/c2cc3ccccc3[nH]c2=O)cc1	1.55	3.24	3.55	22.4	3.16	12.6	1.77	5.02	2.41	7.69	2.62	6.95	3.48	17.9	–	–
CC(=O)Oc1ccc(C23c4ccccc4C2(OC(C)=O)c2cc(OC(C)=O)ccc23)cc1 (centres undefined)	3.56	12.7	4.28	49.5	17.6	70.2	2.29	6.66	3.81	17.7	3.34	11.2	1.85	5.02	3.48	12.8
OCc1ccc(N2CCc3cccc(F)c3C2)cc1Cl	< 0.0104	14.6	5.85	41.9	0.189	15.7	–	20.5	10.4	36.3	15.7	48.6	14.5	46.6	23.5	> 63.2
O=S(=O)(NC1=NCCN1C(=S)SN1CCn2c1nsc2=S)c1cccc2ccccc12	14.8	37.2	17.5	43.8	35.2	> 100	3.7	67.8	26.3	> 100	17.3	41.4	26.6	> 100	20.4	55
CC[C@H](Nc1ncnc2nc[nH]c12)c1nc2cccc(F)c2c(=O)n1-c1ccccc1	39.4	> 100	44.6	> 100	31.2	> 100	37.6	> 100	37.6	> 100	43.7	> 100	3.5	> 68.7	28	> 100
COc1ccccc1C#Cc1ccccc1C#CCCCCO	16	36.3	22.6	74.9	16.3	36.5	20	> 100	19.9	48.9	23.1	57.8	16.8	32.8	17.9	36
O=[N+]([O-])c1cc(Cl)c2[nH]c3c(Cl)cc([N+](=O)[O-])cc3c2c1	0.263	7.12	0.253	1.23	0.302	2.9	0.124	> 100	0.355	> 100	0.354	> 100	0.189	1.38	0.308	> 42
